Measurements: patent US10414778B2, “Methods for treatment of resistant cancer” (New Mexico Tech University Research Park Corporation, priority 2016, dated 2019)
Where two headings read alike, the source gives them in different places.

Assays:
MCF-7 cells = assay: MTT in vitro growth inhibition assay, MCF-7; assay type: cell-based, human; details: Homo sapiens, two independent experiments
Experimental: (§1) Human cancer cell lines were obtained from the American Type Culture Collection (ATCC, Manassas, Va., USA), the European Collection of Cell Culture (ECACC, Salisbury, UK), and the Deutsche Sammlung von Mikroorganismen und Zellkulturen (DSMZ, Braunschweig, Germany). Human cervical adenocarcinoma HeLa cells were cultured in DMEM supplemented with 10% fetal bovine serum (FBS). Human mammary carcinoma MCF-7 cells were cultured in RPMI supplemented with 10% FBS. The U87 cells (ATCC HTB-14) were cultured in DMEM culture medium, while the A549 cells (DSMZ ACC107) were cultured in RPMI culture medium supplemented with 10% heat-inactivated FBS. The GBM Hs683 (ATCC HTB-138) and the T98G (ATCC CRL-1690) cell lines were cultivated in DMEM supplemented with 10% FBS. The GBM U251 cells (ECACC code 09063001) were cultured in 10% MEM. The human uterine sarcoma MES-SA and MES-SA/Dx5 cells were cultured in RPMI-1640 medium supplemented with 10% FBS with MES SA/Dx5 maintained in the presence of 500 nM Doxorubicin (Sigma™). The U373 glioblastoma cells (ECACC 08061901) were cultured in RPMI culture medium supplemented with 10% heat-inactivated FBS.
(§2) Spirodienones 4a-m were subjected to in vitro growth inhibition 3-(4,5-dimethylthiazol-2-yl)-2,5-diphenyltetrazolium bromide (MTT) assays against two cell lines, human HeLa cervical and MCF-7 breast adenocarcinomas.
(§3) All compounds were dissolved in DMSO at a concentration of either 100 mM or 50 mM prior to cell treatment. The cells were trypsinized and seeded at various cell concentrations depending on the cell type. The cells were grown for 24 h to 72 h, treated with compounds at concentrations ranging from 0.001 to 100 μM, and incubated for 48, 72, or 96 h in 100 or 200 μL media depending on the cell line used. Cells treated with 0.1% DMSO were used as a negative control, and cells treated with 1 μM phenyl arsine oxide (PAO) were used as a positive control.
(§4) To determine the activities of the compounds of the invention toward cancer cells, cell lines treated with different compounds were subjected to an in vitro MTT growth assay using human cervical cancer (HeLa) and human adenocarcinoma (MCF-7) cell lines. The MTT growth assay is a colorimetric assay that measures the metabolic activity of cells via reduction of 3-(4,5-dimethylthiazol-2-yl)-2,5-diphenyltetrazolium bromide (MTT). The reduction of MTT occurs in metabolically-active cells and is characterized by a purple color, which can be quantified via spectrophotometry. A higher absorbance reading indicates a metabolically-active cell, while a low absorbance reading indicates low metabolic activity due to, for example, inhibition of cellular proliferation or cell death.
(§5) The values in TABLE 4 are the mean and standard deviation calculated from two independent experiments, which were performed in 4 replicates.

MES-SA cells = assay: MTT growth inhibition, MES-SA uterine sarcoma; assay type: cell-based; details: Homo sapiens, MES-SA, MTT
Experimental: as §1
as §3, with “control. […]” for “control.”
Drug-resistant cell lines (i.e., glioma: Hs683, U373, U251, U87, T98G; lung cancer: A549, H2073; uterine carcinoma: MES-SA/Dx5) were complemented with drug-sensitive cell lines, H1993 lung cancer and MES-SA uterine cancer, which were used as controls. […] The GI50 values were calculated after 48-96 hours of treatment with the indicated compounds in replicate using the MTT growth assay.

U87 cells = assay: MTT growth inhibition, U87 glioma; assay type: cell-based, human; details: Homo sapiens, U-87 MG
Experimental: as §1, §3
(§6) Compound 4l was evaluated for in vitro growth inhibition against a panel of cancer cell lines, including U373, U251, U87, T98G, human GBM, and A549 NSCLC. […] Compound 4l was also evaluated for in vitro growth inhibition against the apoptosis-sensitive tumor model Hs683 anaplastic oligodendroglioma as a reference.
(§7) Due to their high potencies, compounds 5l and 5g were used to determine the effects of the compounds on drug-resistant tumor cells. Drug-resistant cell lines (i.e., glioma: Hs683, U373, U251, U87, T98G; lung cancer: A549, H2073; uterine carcinoma: MES-SA/Dx5) were complemented with drug-sensitive cell lines, H1993 lung cancer and MES-SA uterine cancer, which were used as controls. Bulbispermine and paclitaxel were also used as controls. The GI50 values were calculated after 48-96 hours of treatment with the indicated compounds in replicate using the MTT growth assay.

H2073 cells = assay: MTT growth inhibition, H2073 drug-resistant NSCLC; assay type: cell-based, human; details: for decrease in potency toward H2073 cells relative to H1993 cells: H2073 versus H1993; for GI50: Homo sapiens, NCI-H2073, MTT
Experimental: NSCLC cell lines H1993 and H2073 were obtained from the Hamon Center for Therapeutic Oncology Research at UT Southwestern Medical Center and cultured in RPMI-1640 medium (Mediatech, VA, USA) supplemented with 5% heat-inactivated FBS (Mediatech™), 100 units/mL penicillin and 0.1 mg/mL streptomycin (Sigma™). All cell lines were cultured in T25 flasks, maintained, and grown at 37° C., 95% humidity, 5% CO2.
as §3
Spirodienone 4l was evaluated against patient-derived NSCLC cell line H1993 and its drug-resistant variant, H2073. The patient-derived NSCLC cell line […] was obtained from a regrown tumor at a primary site after a patient relapsed several months later.
as §7
Compound 5l was further tested to determine the effect of compounds of the invention on drug-resistant tumor cells. A patient-derived non-small cell lung cancer (NSCLC) line, H1993, and the drug-resistant variant of H1993, H2073, were used for testing. The H1993 cell line was obtained from a lymph node metastasis isolated from the patient prior to chemotherapy. The H2073 cell line was derived from a regrown tumor at the primary site after the patient had relapsed several months after administration of the chemotherapy regimen.

T98G cells = assay: MTT growth inhibition, T98G glioma; assay type: cell-based, human; details: Homo sapiens, T98G
Experimental: as §1, §3, §6, §7

[1] = system: five GBM cell cultures (U373, T98G, U251, Hs683, U87); assay: MTT growth curves of five GBM cell cultures (populations resistant to proapoptotic agents); assay type: cell-based, human
Description: Cells resistant to various pro-apoptotic stimuli often contain a sensitive population that quickly response to pro-apoptotic agents. However, a significant portion of the cells in a culture resist the effects of pro-apoptotic agents even at concentrations 100- or 1000-fold their GI50 values.

HeLa cells = assay: MTT in vitro growth inhibition assay, HeLa; assay type: cell-based, human; details: Homo sapiens, HeLa, two independent experiments
Experimental: as §1, §2, §3, §4, §5

## O=C1C=C[C@]23CC[N@](Cc4c2sc2ccccc42)[C@H]3C1 [Compound 5l]
MCF-7 cells; MCF7, Table 4, 48-hour treatment, mean and standard deviation, read-out: MCF-7 Cell Viability GI50
  GI50: 4.7 ± 0.1 µM
MES-SA cells; Table 5, 48-96 hours of treatment, read-out: GI50, Sarcoma MES-SA
  GI50: 2 µM
U87 cells; Table 5, 48-96 hours of treatment, read-out: GI50, Glioma U87
  GI50: 5 µM
H2073 cells
  decrease in potency toward H2073 cells relative to H1993 cells: less drastic
H2073 cells; Table 5, 48-96 hours of treatment, read-out: GI50, Lung Cancer H2073
  GI50: 11 µM
T98G cells; Table 5, 48-96 hours of treatment, read-out: GI50, Glioma T98G
  GI50: 7 µM
[1]; U373, T98G, U251, Hs683, U87, MTT, FIG. 8
  dose-dependent effects against cell populations resistant to proapoptotic agents: dose-dependent effects
HeLa cells; Table 4, 48-hour treatment, mean and standard deviation, read-out: HeLa Cell Viability GI50
  GI50: 6.2 ± 1.13 µM

## O=C1C=CC2(C=C1)CCN(C(=O)C(F)(F)F)Cc1c2sc2ccccc12 [Compound 4l]
MCF-7 cells; MCF7, MCF-7, 48 h treatment, ± SD, read-out: cell viability GI50, MCF-7
  GI50: 7 ± 1 µM
MES-SA cells; Table 3, 48-96 h treatment, read-out: GI50 in vitro values, uterine sarcoma MES-SA
  GI50: 5 µM
U87 cells; Table 3, 48-96 h treatment, read-out: GI50 in vitro values, glioma U87
  GI50: 6 µM
H2073 cells
  decrease in potency toward H2073 cells relative to H1993 cells: significantly less pronounced than that observed with paclitaxel
H2073 cells; Table 3, 48-96 h treatment, read-out: GI50 in vitro values, lung cancer H2073
  GI50: 50 µM
T98G cells; Table 3, 48-96 h treatment, read-out: GI50 in vitro values, glioma T98G
  GI50: 15 µM
[1]; 5 GBM cell lines, FIG. 1, one experiment in six replicates
  resistant populations in growth curves of GBM cell cultures: absence of such resistant populations
HeLa cells; 48 h treatment, ± SD, read-out: cell viability GI50, HeLa
  GI50: 10 µM
